The data set deals with GENE-TOX genotoxicity assays, various organisms and cells. The data set is described as follows: GENE-TOX mutagenicity studies.
Where [1] appears, read: Species/Cell Type: Chinese hamster lung (V79) cells, Assay Type: Forward gene mutation at the HPRT or ouabain locus, Assay Code: V79+, Evaluation Type: Evaluation A (Pre-1980).
Where [2] appears, read: Species/Cell Type: Nonhuman, Assay Type: Sister-chromatid exchange (SCE) in vitro, Assay Code: SC2+D, Dose Response: With dose response, Evaluation Type: Evaluation B (Post-1980).
The mark [3] stands for this setting: Species/Cell Type: Syrian hamster embryo (SA7/SHE) cells, Assay Type: Cell transformation, viral enhanced, Assay Code: CT7+, Evaluation Type: Evaluation A (Pre-1980).
Setting [4] is: Species/Cell Type: Salmonella typhimurium (one or more of the five standard strains: TA98, TA100, TA1535, TA1537, and TA1538), Assay Type: Histidine reverse gene mutation, Ames assay, Assay Code: SAL+, Evaluation Type: Evaluation A (Pre-1980).
Setting [5] is: Species/Cell Type: Mammalian polychromatic erythrocytes, Assay Type: Micronucleus test, chromosome aberrations, Assay Code: MNTT, Evaluation Type: Evaluation B (Post-1980).
Where [6] appears, read: Species/Cell Type: Drosophila melanogaster, Assay Type: Sex-linked recessive lethal gene mutation, Assay Code: SRLT, Evaluation Type: Evaluation A (Pre-1980).

Active and inactive are the calls of the source. No rule for the calls is given here.

Consider `O=c1[nH]c(=O)n([C@H]2C[C@H](O)[C@@H](CO)O2)cc1Br`, for which the mutagenic call is “no conclusion” (Species/Cell Type: Arabidopsis species, Assay Type: Gene mutation, Assay Code: ARMT, Evaluation Type: Evaluation A (Pre-1980)); “active; positive” under setting [1]; “active; positive” (Species/Cell Type: Chinese hamster ovary (CHO) cells, Assay Type: Forward gene mutation at the HPRT locus, Assay Code: CHO+, Evaluation Type: Evaluation B (Post-1980)); “active; positive” (Species/Cell Type: Drosophila melanogaster, Assay Type: Sex-linked recessive lethal gene mutation, Assay Code: SRL+, Evaluation Type: Evaluation A (Pre-1980)); “no conclusion” (Species/Cell Type: Drosophila melanogaster, Sex: Male, Assay Type: Heritable translocation test, chromosome aberrations, Assay Code: DHTT, Evaluation Type: Evaluation A (Pre-1980)); “no conclusion” (Species/Cell Type: Escherichia coli polA (W3119 vs P3478), Assay Type: Rec-assay, DNA effects (bacterial DNA repair), Assay Code: RE1T, Evaluation Type: Evaluation A (Pre-1980)). The mutagenic call (Species/Cell Type: Human diploid fibroblasts, Assay Type: Unscheduled DNA synthesis (UDS) in vitro, DNA effects, Assay Code: UDH-, Evaluation Type: Evaluation A (Pre-1980)) was “inactive; negative”; the mutagenic call (Species/Cell Type: Human embryo lung fibroblasts (WI-38 cells), Assay Type: Sister-chromatid exchange (SCE) in vitro, Assay Code: SCW+D, Dose Response: With dose response, Evaluation Type: Evaluation A (Pre-1980)) is “active; positive”; the mutagenic call (Species/Cell Type: Human embryo lung fibroblasts (WI-38 cells), Assay Type: Sister-chromatid exchange (SCE) in vitro, Assay Code: SCW+D, Dose Response: With dose response, Evaluation Type: Evaluation B (Post-1980)) is “active; positive”; the mutagenic call (Species/Cell Type: Human lymphocytes, Assay Type: Micronucleus test in vitro, chromosome aberrations, Assay Code: MN7+, Evaluation Type: Evaluation A (Pre-1980)) was “active; positive”; the mutagenic call (Species/Cell Type: Human lymphocytes, Assay Type: Sister-chromatid exchange (SCE) in vitro, Assay Code: SCL+D, Dose Response: With dose response, Evaluation Type: Evaluation A (Pre-1980)) was “active; positive”; the mutagenic call (Species/Cell Type: Human lymphocytes, Assay Type: Sister-chromatid exchange (SCE) in vitro, Assay Code: SCLT, Evaluation Type: Evaluation B (Post-1980)) is on record as “no conclusion”. Moreover, the mutagenic call runs as follows: (Species/Cell Type: Human, Assay Type: Sister-chromatid exchange (SCE) in vitro, Assay Code: SC1+D, Dose Response: With dose response, Evaluation Type: Evaluation A (Pre-1980)) “active; positive”; (Species/Cell Type: Human, Assay Type: Sister-chromatid exchange (SCE) in vitro, Assay Code: SC1T, Evaluation Type: Evaluation B (Post-1980)) “no conclusion”; (Species/Cell Type: Mammalian polychromatic erythrocytes, Assay Type: Micronucleus test, chromosome aberrations, Assay Code: MNT+, Evaluation Type: Evaluation A (Pre-1980)) “active; positive”; (Species/Cell Type: Mouse (C3H/10T1/2) cells, Assay Type: Cell transformation, Assay Code: CTH-, Evaluation Type: Evaluation A (Pre-1980)) “inactive; negative”; (Species/Cell Type: Mouse, Sex: Male, Assay Type: Sperm morphology, Assay Code: SPI+, Evaluation Type: Evaluation A (Pre-1980)) “active; positive”; (Species/Cell Type: Nonhuman, Assay Type: Sister-chromatid exchange (SCE) in vitro, Assay Code: SC2+D, Dose Response: With dose response, Evaluation Type: Evaluation A (Pre-1980)) “active; positive”. Moreover, the mutagenic call is “active; positive” under setting [2]; “active; positive” (Species/Cell Type: Nonhuman, Assay Type: Sister-chromatid exchange (SCE) in vivo, Assay Code: SC3+D, Dose Response: With dose response, Evaluation Type: Evaluation A (Pre-1980)); “active; positive” (Species/Cell Type: Nonhuman, Assay Type: Sister-chromatid exchange (SCE) in vivo, Assay Code: SC3+D, Dose Response: With dose response, Evaluation Type: Evaluation B (Post-1980)); “inactive; negative” (Species/Cell Type: Saccharomyces cerevisiae, Assay Type: Mitotic recombination or gene conversion, Assay Code: YEH-, Evaluation Type: Evaluation A (Pre-1980)); “active; positive” under setting [3]; “no conclusion” (Species/Cell Type: Syrian hamster embryo (SHE) cells, Assay Type: Cell transformation, clonal assay, Assay Code: CTCT, Evaluation Type: Evaluation A (Pre-1980)). The call (Species/Cell Type: Nonhuman, Assay Type: In vivo carcinogenicity studies, Assay Code: CCGT, Evaluation Type: Evaluation A (Pre-1980)) is “no conclusion”.
Take `COc1ccc2nc3cc(Cl)ccc3c(NCCCNCCO)c2n1`: the mutagenic call (Species/Cell Type: Chinese hamster ovary (CHO) cells, Assay Type: Forward gene mutation at the HPRT locus, Assay Code: CHOT, Evaluation Type: Evaluation B (Post-1980)) is “no conclusion”.
Take `O=S1(=O)OCCCO1`: the mutagenic call is, setting by setting: under setting [4], “active; positive”; (Species/Cell Type: Salmonella typhimurium, Assay Type: Forward and reverse gene mutation, host-mediated assay, Assay Code: HMA+, Evaluation Type: Evaluation A (Pre-1980)) “active; positive”.
For the compound `O=[N+]([O-])c1ccc(-c2nc(N3CCOCC3)c3ccccc3n2)s1`, the mutagenic call under setting [4] was “active; positive”.
For `O[C@@H]1[C@H]2O[C@H]2c2cc3ccc4cccc5ccc(c2[C@H]1O)c3c45`, the mutagenic call under setting [4] was “active; positive”.
In the case of `COc1ccc(Cl)cc1C(=O)NCCc1ccc(S(=O)(=O)NC(=O)NC2CCCCC2)cc1`, the mutagenic call is, setting by setting: under setting [5], “no conclusion”; (Species/Cell Type: Nonhuman, Assay Type: Sister-chromatid exchange (SCE) in vivo, Assay Code: SC3T, Evaluation Type: Evaluation B (Post-1980)) “no conclusion”.
Take `CN[C@H]1Cc2c[nH]c3c(Cl)ccc(c23)[C@]12C=C(C)C(=O)O2`: for the setting “Species/Cell Type: Bacillus subtilis (H17 vs M45), Assay Type: Rec-assay, spot test, DNA effects (bacterial DNA repair), Assay Code: REW-, Evaluation Type: Evaluation A (Pre-1980)”, the mutagenic call is “inactive; negative”.
As to `CCOC(=O)COc1ccc(Br)cc1CCl` (tested in a mixture with another compound), the mutagenic call (Species/Cell Type: Saccharomyces cerevisiae, Assay Type: Reverse gene mutation, Assay Code: YERT, Evaluation Type: Evaluation A (Pre-1980)) is listed as “no conclusion”.
For `Nc1ccn([C@@H]2O[C@H](CO)[C@@H](O)C2O)c(=O)n1` (stereo partly drawn), the mutagenic call was “active; positive” under setting [1]; “no conclusion” under setting [6]; “active; positive” (Species/Cell Type: Ehrlich ascites tumor (mouse) cells, Assay Type: Chromosome aberrations, DNA effects, host-mediated assay, Assay Code: HMH+, Evaluation Type: Evaluation A (Pre-1980)); “inactive; negative” (Species/Cell Type: Glycine max (soybean), Assay Type: Gene mutation, Assay Code: GLM-, Evaluation Type: Evaluation A (Pre-1980)); “active; positive” (Species/Cell Type: Human lymphocytes or leukocytes, Assay Type: Chromosome aberrations in vitro, Assay Code: CY7+, Evaluation Type: Evaluation A (Pre-1980)); “active; positive” (Species/Cell Type: Human lymphocytes, Assay Type: Sister-chromatid exchange (SCE) in vitro, Assay Code: SCL+, Evaluation Type: Evaluation B (Post-1980)). The mutagenic call runs as follows: (Species/Cell Type: Human lymphocytes, Assay Type: Sister-chromatid exchange (SCE) in vitro, Assay Code: SCLT, Evaluation Type: Evaluation A (Pre-1980)) “no conclusion”; (Species/Cell Type: Human, Assay Type: Sister-chromatid exchange (SCE) in vitro, Assay Code: SC1+D, Dose Response: With dose response, Evaluation Type: Evaluation B (Post-1980)) “active; positive”; (Species/Cell Type: Human, Assay Type: Sister-chromatid exchange (SCE) in vitro, Assay Code: SC1T, Evaluation Type: Evaluation A (Pre-1980)) “no conclusion”; (Species/Cell Type: Mammalian polychromatic erythrocytes, Assay Type: Micronucleus test, chromosome aberrations, Assay Code: MNT+, Evaluation Type: Evaluation B (Post-1980)) “active; positive”; (Species/Cell Type: Mouse (C3H/10T1/2) cells, Assay Type: Cell transformation, Assay Code: CTH+, Evaluation Type: Evaluation A (Pre-1980)) “active; positive”; under setting [2], “active; positive”. In addition, the mutagenic call was “no conclusion” (Species/Cell Type: Nonhuman, Assay Type: Sister-chromatid exchange (SCE) in vivo, Assay Code: SC3T, Evaluation Type: Evaluation A (Pre-1980)); “active; positive” under setting [3]; “active; positive” (Species/Cell Type: Syrian hamster embryo (SHE) cells, Assay Type: Cell transformation, clonal assay, Assay Code: CTC+, Evaluation Type: Evaluation A (Pre-1980)).
Consider `Cc1ccc(S(N)(=O)=O)cc1`, for which the mutagenic call is, setting by setting: under setting [6], “no conclusion”; under setting [5], “no conclusion”.
On to `CN(N=O)C(=O)Oc1ccccc1Cl`, for which the mutagenic call is “active; positive” (Species/Cell Type: Bacillus subtilis (H17 vs M45T), Assay Type: Rec-assay, spot test, DNA effects (bacterial DNA repair), Assay Code: REX+, Evaluation Type: Evaluation A (Pre-1980)) and “active; positive” (Species/Cell Type: Escherichia coli WP2, Assay Type: Tryptophan reverse gene mutation, Assay Code: WP2+, Evaluation Type: Evaluation A (Pre-1980)).

The record behind these values is PubChem BioAssay AID1259408 (Genetic Toxicology Data Bank (GENE-TOX), 2018).
